Data from ChEMBL document CHEMBL1201862, “PubChem BioAssay data set” (2004).
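48-hour exposure; five concentrations; linearly interpolated endpoints. Here, GI50 denotes the concentration required for 50% inhibition of growth.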 Calls of active or inactive are those of the source. Cut-off read from the data, not from the text of the source: active = GI50 up to about 1.1 µM and inactive = higher.

Legend:
Assay in all cases: growth of human tumour cells (NCI), 48 h
[1] = tested on: COLO 205
[2] = tested on: A549
[3] = tested on: U-251
[4] = tested on: SNB-19
[5] = tested on: UACC-257
[6] = tested on: Hs-578T
[7] = tested on: DU-145
[8] = tested on: SK-MEL-28
[9] = tested on: OVCAR-3
[10] = tested on: UO-31
[11] = tested on: MCF7
[12] = tested on: HOP-62
[13] = tested on: NCI-H226
[14] = tested on: SF-268
[15] = tested on: NCI-H460
[16] = tested on: A498
[17] = tested on: NCI/ADR-RES
[18] = tested on: SN12C
[19] = tested on: LOX IMVI
[20] = tested on: SR

SMILES | GI50 [1] | GI50 [2] | GI50 [3] | GI50 [4] | GI50 [5] | GI50 [6] | GI50 [7] | GI50 [8] | GI50 [9] | GI50 [10] | GI50 [11] | GI50 [12] | GI50 [13] | GI50 [14] | GI50 [15] | GI50 [16] | GI50 [17] | GI50 [18] | GI50 [19] | GI50 [20]
CCN(CC)CCCNc1nncc2cc3c([nH]c4ccccc43)c(C)c12 | 8.75 µM (inactive) | 10.8 µM (inactive) | 6.04 µM (inactive) | 12.4 µM (inactive) | 15.6 µM (inactive) | 14.1 µM (inactive) | 12 µM (inactive) | 17.7 µM (inactive) | 10.4 µM (inactive) | 12.1 µM (inactive) | 13.6 µM (inactive) | 12.9 µM (inactive) | 11.5 µM (inactive) | 8.18 µM (inactive) | 5.6 µM (inactive) | 15.4 µM (inactive) | 48.9 µM (inactive) | 6.24 µM (inactive) | 5.18 µM (inactive) | –
Cc1nc(-c2cc3c(ccc4ccccc43)oc2=O)cs1 | > 100 µM (inactive) | > 100 µM (inactive) | 57.9 µM (inactive) | 33.2 µM (inactive) | > 100 µM (inactive) | 30.3 µM (inactive) | > 100 µM (inactive) | > 100 µM (inactive) | – | 46.3 µM (inactive) | > 100 µM (inactive) | 35.7 µM (inactive) | 66.4 µM (inactive) | 35.6 µM (inactive) | 91.8 µM (inactive) | – | 48.3 µM (inactive) | > 100 µM (inactive) | > 100 µM (inactive) | > 100 µM (inactive)
Cc1cn(CC2=NCC(C)(C)CN2)c(=O)[nH]c1=O | > 100 µM (inactive) | > 100 µM (inactive) | > 100 µM (inactive) | > 100 µM (inactive) | > 100 µM (inactive) | > 100 µM (inactive) | > 100 µM (inactive) | > 100 µM (inactive) | – | > 100 µM (inactive) | > 100 µM (inactive) | > 100 µM (inactive) | > 100 µM (inactive) | > 100 µM (inactive) | > 100 µM (inactive) | > 100 µM (inactive) | > 100 µM (inactive) | > 100 µM (inactive) | > 100 µM (inactive) | –
O=C1C(Cl)C2(CC(/C=C/c3ccccc3)=NN2c2cccc(S(=O)(=O)O)c2)N1c1nc2ccccc2s1 (stereo not drawn) | 19.2 µM (inactive) | 15.3 µM (inactive) | 14.7 µM (inactive) | 25.2 µM (inactive) | 17.8 µM (inactive) | 30.9 µM (inactive) | – | 44.8 µM (inactive) | – | 4.32 µM (inactive) | 16.7 µM (inactive) | – | 17.7 µM (inactive) | 20 µM (inactive) | 22.8 µM (inactive) | 19.3 µM (inactive) | 28.2 µM (inactive) | 17.2 µM (inactive) | 2.79 µM (inactive) | 13.4 µM (inactive)
N#CCCC1(CCC#N)CCCCCCCCC(CCC#N)(CCC#N)C(O)C1O (stereo not drawn) | > 100 µM (inactive) | 73.6 µM (inactive) | 46.7 µM (inactive) | 66.7 µM (inactive) | > 100 µM (inactive) | 52 µM (inactive) | > 100 µM (inactive) | > 100 µM (inactive) | > 100 µM (inactive) | – | > 100 µM (inactive) | 61.7 µM (inactive) | > 100 µM (inactive) | 37.8 µM (inactive) | > 100 µM (inactive) | 94.6 µM (inactive) | > 100 µM (inactive) | > 100 µM (inactive) | > 100 µM (inactive) | –
O=c1[nH]c2cc([N+](=O)[O-])c(N/N=C/c3ccc(Cl)cc3Cl)c([N+](=O)[O-])c2[nH]1 | > 100 µM (inactive) | 37.9 µM (inactive) | 34.4 µM (inactive) | 64 µM (inactive) | > 100 µM (inactive) | 90.2 µM (inactive) | 51.9 µM (inactive) | > 100 µM (inactive) | 17.4 µM (inactive) | 41.6 µM (inactive) | 42.6 µM (inactive) | 59.6 µM (inactive) | 58.3 µM (inactive) | 75.3 µM (inactive) | 83 µM (inactive) | 14.3 µM (inactive) | 15.5 µM (inactive) | 37.5 µM (inactive) | 18.5 µM (inactive) | –
O=c1c(Br)cc2c(-c3ccccc3)c3cc(Br)c(O)c(Br)c3oc-2c1Br | 51.2 µM (inactive) | > 100 µM (inactive) | > 100 µM (inactive) | > 100 µM (inactive) | > 100 µM (inactive) | > 100 µM (inactive) | > 100 µM (inactive) | > 100 µM (inactive) | > 100 µM (inactive) | > 100 µM (inactive) | 79.3 µM (inactive) | > 100 µM (inactive) | > 100 µM (inactive) | > 100 µM (inactive) | 77.4 µM (inactive) | 27.3 µM (inactive) | > 100 µM (inactive) | > 100 µM (inactive) | 37.4 µM (inactive) | –
COC(=O)/N=[N+](\[O-])C(c1ccc(OC)cc1)C1CCCCC1 (stereo not drawn) | 0.611 µM (active) | 5.07 µM (inactive) | 1.03 µM (active) | 9.53 µM (inactive) | 1.47 µM (inactive) | 6.3 µM (inactive) | 1.86 µM (inactive) | 13.6 µM (inactive) | 6.15 µM (inactive) | 5.82 µM (inactive) | 7.35 µM (inactive) | 4.84 µM (inactive) | 5.16 µM (inactive) | 4.23 µM (inactive) | 1.39 µM (inactive) | 6.67 µM (inactive) | 2.11 µM (inactive) | 1.8 µM (inactive) | 3.33 µM (inactive) | –
COc1ccc(N[S+]([O-])CCc2ccccc2)cc1 (stereo not drawn) | > 100 µM (inactive) | > 100 µM (inactive) | > 100 µM (inactive) | > 100 µM (inactive) | > 100 µM (inactive) | 23.4 µM (inactive) | > 100 µM (inactive) | > 100 µM (inactive) | > 100 µM (inactive) | > 100 µM (inactive) | > 100 µM (inactive) | > 100 µM (inactive) | > 100 µM (inactive) | > 100 µM (inactive) | > 100 µM (inactive) | – | 58.1 µM (inactive) | > 100 µM (inactive) | > 100 µM (inactive) | > 100 µM (inactive)
O=C1C(Cl)=C(Nc2ccc(S(=O)(=O)O)cc2)C(=O)c2ccccc21 | 17.4 µM (inactive) | 21.9 µM (inactive) | 36.8 µM (inactive) | 24.6 µM (inactive) | 40 µM (inactive) | 24 µM (inactive) | 16.3 µM (inactive) | 32.1 µM (inactive) | 20.8 µM (inactive) | 15 µM (inactive) | 20.9 µM (inactive) | 36.2 µM (inactive) | 34.4 µM (inactive) | 39.3 µM (inactive) | 33.6 µM (inactive) | – | > 100 µM (inactive) | – | 30.3 µM (inactive) | 32.6 µM (inactive)
Oc1cc2c3c(c1)c1cc4c(cc1c[n+]3CC2)OCO4 | 3.73 µM (inactive) | 5.71 µM (inactive) | 0.971 µM (active) | 1.8 µM (inactive) | 8.83 µM (inactive) | 0.906 µM (active) | 3.23 µM (inactive) | 7.82 µM (inactive) | 4.88 µM (inactive) | 5.42 µM (inactive) | 7.69 µM (inactive) | 8.45 µM (inactive) | 2.69 µM (inactive) | 0.224 µM (active) | 2.43 µM (inactive) | 35.4 µM (inactive) | – | 1.29 µM (inactive) | 1.63 µM (inactive) | 0.671 µM (active)
